In US20260240879A1, “TOPICAL PALA THERAPY FOR CANCER” (priority 2023, published 2026):
Like-named read-outs stand apart in the source and are kept apart here.

What was measured:
[1] = test system: normal human dermal fibroblasts; experiment: PALA stimulation of normal human dermal fibroblasts (bactericidal activity against MRSA, antimicrobial peptides); format: cell-based; conditions: cells stimulated for 16 h with PALA
Protocol: A. Bactericidal activity of normal human dermal fibroblasts stimulated by PALA treatment. Cells stimulated for 16 h with the indicated concentration of PALA. Conditioned supernatants added to log phase cultures of methicillin-resistant Staphylococcus aureus (MRSA) for 2 h and viable bacterial determined by selective plating. Mean±SD graphed. B. PALA-stimulated production of antimicrobial peptides in normal human dermal fibroblasts. Cells were stimulated as in A. and supernatants assayed by ELISA for human β-defensin 2 (HBD2) and human β-defensin 3 (HBD3). Mean±SD graphed. C. […] Cell lysates from the cells shown in A. were assayed for their ability to catalyze the formation of carbamyl aspartate (CA) in vitro. Percent change in CA levels graphed; mean±SD. […] D. Average number of tumors per mouse at the end of the treatment period (mean±SEM graphed). D. Mice treated for 10 weeks with vehicle (Aquaphor), 1%, 2%, or 5% PALA in Aquaphor. E. Mice treated for 4 weeks with vehicle (AP0536/29/02), 2% (w/w) PALA (AP0536/29/02), or 4% (w/w) PALA (AP0536/29/02).

[2] = In vitro diffusion test (Franz cells); format: in vitro ADME; conditions: PALA 50 mg/g, 37° C., PBS pH 7.4
Protocol: All the formulations were prepared by accurately weighing 50 mg PALA in a 4 mL glass vial. The vial was stirred at RT until a clear solution was obtained. Exception for poloxamers P407 20% w/w and P188 at 40% w/w where the PALA solubilisation was performed by stirring the vial in an ice bath (to prevent gelling which occurred at RT).
In vitro diffusion test (Franz cells, Copley) was performed to mimicking in-vivo conditions of PALA (CMI-34-1) transfer from the formulation through the skin. The test was performed in sink conditions. 100 μL of PALA (CMI-34-1)-loaded hydrogels or bi-gel (containing 5 mg of API) were added to the donor chamber of the Franz cells. 7 mL of PBS pH 7.4 was added to the receptor chamber. The chambers were separated by a Strat-M Membrane (Transdermal Diffusion Test Model, Merck) of 25 mm diameter. The Franz cells were incubated at 37° C. in an appropriate heating block and under stirring at 450 rpm. At selected time points (15, 30, 60, 120, 180, and 1440 minutes), 100 μL of samples was withdrawn from the receptor chamber and analysed by HPLC for drug release. The same volume was replaced with fresh PBS buffer pre-heated at 37° C.

[3] = test system: chemical carcinogen-induced skin cancer; experiment: Chemical carcinogen (DMBA/TPA)-induced skin cancer model, C57BL/6; format: in vivo, C57BL/6 female mice; conditions: 2% (w/v) PALA/Aquaphor, topical, 4 weeks
Text: Means±SEM, n=5-6/group. Significance determined by 2-way ANOVA

B16 melanoma = B16 melanoma orthotopic xenograft model; format: in vivo,  female mice
Protocol: FIG. 17: Topical PALA treatment retards melanoma growth and sensitizes melanoma to anti-checkpoint inhibitor therapy in a B16 melanoma orthotopic xenograft model. C57BU/6 female mice (n=4-5/group) were injected subcutaneously bilaterally with B16 melanoma cells (10^5 cells/flank; 8-10 injections total). Tumor volume was measured by caliper every 2-3 days by personnel blinded to treatment group. Data from palpable tumors are graphed as mean±SEM. […] On day 12 post-injection, mice were treated topically with either vehicle (AP0536/29/02) or 1% (w/w) PALA (AP0536/29/02) daily for 12 days. […] On day 7 post-injection, mice were treated topically with either vehicle (AP0536/29/02) or 2% (w/w) PALA (AP0536/29/02) daily for 5 days. Tumors were harvested on day 14 post-injection and tumor lysates analyzed by immunoblot for PD-L1 protein levels and quantified by image densitometry using ImageJ relative to tubulin levels (loading control). Mean±SEM graphed. C. […] On day 7 post-injection, mice were treated topically with either vehicle (AP0536/29/02) or 2% (w/w) PALA (AP0536/29/02) daily for 5 days. Mice were also treated with either isotype or anti-PD-L1/atezolizumab antibodies (100 μg/mouse) every 48 hours intraperitoneally from day 7 to day 19. Significant differences were determined by 2-way ANOVA with Dunnett's multiple comparison test. ***p<0.001

[4] = test system: MOC-1 squamous cell carcinoma cells; experiment: Oral squamous cell carcinoma orthotopic xenograft (tongue); format: in vivo, C57Bl/6 mice; conditions: 2% (w/w) PALA (AP0536/29/02), tongue treated topically 5×/week
Protocol: FIG. 18: Tumor growth of oral squamous cell carcinoma orthotopic xenografts is retarded by topical PALA treatment. C57Bl/6 mice (males and females; n=6/group) were injected with MOC-1 squamous cell carcinoma cells in the tongue. Once palpable tumors formed, mouse tongues were treated topically 5×/week with vehicle (AP0536/29/02) or 2% (w/w) PALA (AP0536/29/02). Tumor volume was measured by caliper every 2-3 days. Data are graphed as mean±SEM. Significant differences were determined by Mixed-effects Model (REML) with Sidak's multiple comparison test. *p<0.05, ****p<0.0001.

[5] = test system: cytokines and chemokines in treated skin; conditions: mouse, in vivo
Protocol: The topical formulations of 2% PALA/50% acetone/10% glycerol, 5% imiquimod (IMQ), 5% 5-FU (5-FU), vehicle (50% acetone/10% glycerol) control, and Aquaphor were applied (~0.05 g/mouse) daily to the dorsal skin of SKH1-Elite female mice (8 weeks of age; n=5/group) for 7 days. […] Mice were monitored daily for weight change, skin appearance, and signs of distress.
Skin protein lysates were made by homogenizing frozen tissue with a pestle and scissors in RIPA buffer (50 mM Tris, pH8, 150 mM NaCl, 0.5% sodium deoxycholate, 1% NP-40, 0.1% sodium dodecyl sulfate, lx Pierce protease inhibitor cocktail (A32965, ThermoFisher)). Cytokines and chemokines were quantified from 25 μg of lysate using a custom 10-plex U-PLEX panel (K15069L-2; Meso Scale Discovery) that included: GM-CSF, KC/CXCL1, IFNα, IFNβ, IFNγ, IL-10, IL-6, IL-12p70, IL-17A, IL-17C, IL-17F, IP-10/CXCL10, MCP-1/CCL2, RANTES/CCL5, and TNFα. The MESO SECTOR S 600 plate reader (ICOAA-0; Meso Scale Discovery) was used to collect the U-Plex data and data was analyzed using MSD Discovery Workbench 4.0 software.

[6] = mouse, in vivo
Protocol: The topical formulations of 2% PALA/50% acetone/10% glycerol, 5% imiquimod (IMQ), 5% 5-FU (5-FU), vehicle (50% acetone/10% glycerol) control, and Aquaphor were applied (~0.05 g/mouse) daily to the dorsal skin of SKH1-Elite female mice (8 weeks of age; n=5/group) for 7 days. […] Mice were monitored daily for weight change, skin appearance, and signs of distress. […] At harvest, spleen weights and colon lengths were measured.

[7] = test system: chemical carcinogen-induced skin cancer; conditions: 2% (w/v) PALA in 50% acetone/10% glycerol, topical, 4 weeks
Protocol: SKH1-Elite female mice were treated topically with DMBA for 2 weeks and then treated topically with TPA thrice a week for 8 weeks to induce skin cancer. Mice were then randomized into treatment groups and treated topically with vehicle (50% acetone/10% glycerol) or 2% (w/v) PALA for 4 weeks. A. Quantitation of mean change in tumor burden per mouse during the treatment period as a percentage of the tumor number on week 9. B. Weight change during the treatment period presented as percentage of baseline weight. C. Levels of the liver and systemic inflammation marker serum amyloid A (SAA) at endpoint. D. Measurements of colon length at endpoint as a gross measure of intestinal pathology. Means±SEM, n=8-9/group. Significance determined by 2-way ANOVA with Sidak's multiple comparisons test or unpaired […] t-test. All p values <0.05 are shown on the graphs.

O=C(O)CC(NC(=O)CP(=O)(O)O)C(=O)O [PALA, N-phosphonacetyl-L-aspartate]
shape of dose-response curve (bactericidal activity, HBD2, HBD3) [1]: U-shaped dose-response curve | PALA permeated / released after 24 hours [2]: ~ 0.3% | change in tumor burden [3]: effective in reducing tumor burden | tumor growth (tumor volume) (B16 melanoma; 1% (w/w) PALA (AP0536/29/02), topical daily for 12 days from day 12 post-injection): retards tumor growth | PD-L1 protein levels in tumor lysates (B16 melanoma; 2% (w/w) PALA (AP0536/29/02), topical daily for 5 days): reduces expression of the checkpoint inhibitor PD-L1 | response to anti-PD-L1 therapy (B16 melanoma; 2% (w/w) PALA daily for 5 days plus anti-PD-L1/atezolizumab 100 μg/mouse i.p. every 48 hours): sensitizes B16 melanoma to anti-PD-L1 therapy | tumor growth (tumor volume) [4]: retarded | GM-CSF, Mean (SEM) [5]: 1.0 (0.1) | IL-6, Mean (SEM) [5]: 38.8 (8.1) | IL-17A, Mean (SEM) [5]: 0.5 (0.09) | IL-17C, Mean (SEM) [5]: 0.6 (0.1) | KC, Mean (SEM) [5]: 31.1 (2.8) | RANTES, Mean (SEM) [5]: 46.4 (9.6) | expression of inflammatory cytokine/chemokine panel in treated skin (in words) [5]: no changes | SAA levels on day 7 [6]: no changes | colon length / gross intestinal pathology on day 7 [6]: no changes | skin histology on day 7 [6]: no changes | skin irritation apparent (day) [6]: no skin irritation | spleen weight on day 7 [6]: no changes | change in tumor burden [7]: trends of efficacy in reducing tumor burden
